Results: patent US8476029B2, “MCPP immunoassay” (priority 2009, dated 2013)
In brackets after ≈: the same amount, converted by molar mass. Several values for one entry are separate records, joined by “and”; a condition that tells them apart may be missing. Equal values may be shown once. Read-outs that look alike come from different tables or passages of the source.

What was measured:
[1] = system: Generic antibody (antibody raised from the mCPP-derived immunogen); format: binding, sheep; details: for % CR (percentage cross-reactivity): based on Nefazodone (100%); for IC50 (standard concentration which produces 50% B/B0): generic antibody
Experimental: (§1) The resulting immunogens were administered separately to adult sheep on a monthly basis to provide target-specific polyclonal antisera. IgG was extracted from the antisera via caprylic acid/ammonium sulphate precipitation of immunoglobulin. Microtitre plates (Thermo Scientific, 95029180) were coated with antibody (125 μl) in coating buffer (10 mM Tris pH 8.5) at 37° C. for 2 hours. […] The plates were then washed. […] The plates were then washed and 125 μl of TMB (Randox, 4380-15) was added to each well and left at room temperature for 20 minutes in the dark. The reaction was stopped using 125 μl of 0.2M sulphuric acid. The absorbances were then read at 450 nm with an ELISA microplate reader (BIO-TEK Instruments, EL340) and the means calculated. Antibody specificity and sensitivity were then determined.

[2] = system: Trazodone antibody (antibody raised from the trazodone-derived immunogen); format: binding, sheep; details: for % CR (percentage cross-reactivity): based on Trazodone (100%)
Experimental: as §1

[3] = humans, urine; cited from earlier work

Row | SMILES | % CR (percentage cross-reactivity) [1] [%] | IC50 (standard concentration which produces 50% B/B0) [1] [ng/mL] | % B/B0 ([1]; standard conc 0.156 ng/ml) [%] | A450 (absorbance at 450 nm) ([1]; standard conc 0.156 ng/ml) | % B/B0 ([1]; standard conc 0.313 ng/ml) [%] | A450 (absorbance at 450 nm) ([1]; standard conc 0.313 ng/ml) | % B/B0 ([1]; standard conc 0.625 ng/ml) [%] | A450 (absorbance at 450 nm) ([1]; standard conc 0.625 ng/ml) | % B/B0 ([1]; standard conc 1.250 ng/ml) [%] | % B/B0 ([1]; standard conc 2.500 ng/ml) [%] | % B/B0 ([1]; standard conc 5.000 ng/ml) [%] | % B/B0 ([1]; standard conc 10.000 ng/ml) [%] | % CR (percentage cross-reactivity) [2] [%] | % B/B0 ([2]; standard conc 0.156 ng/ml) [%] | % B/B0 ([2]; standard conc 0.313 ng/ml) [%] | % B/B0 ([2]; standard conc 0.625 ng/ml) [%] | % B/B0 ([2]; standard conc 1.250 ng/ml) [%] | % B/B0 ([2]; standard conc 2.500 ng/ml) [%] | % B/B0 ([2]; standard conc 5.000 ng/ml) [%] | % B/B0 ([2]; standard conc 10.000 ng/ml) [%] | other results
1 | Clc1cccc(N2CCNCC2)c1 [mCPP, 1-(3-chlorophenyl)piperazine] | 46 | 8.476 (≈ 0.0431 µM) | 85 | 1.821 | 79 | 1.679 | 72 | 1.534 | 65 | 55 | 48 | 42 | 0.68 | 98 | 100 | 100 | 100 | 101 | 103 | 106 | A450 (absorbance at 450 nm) ([1]; standard conc 1.250 ng/ml): 1.380; A450 (absorbance at 450 nm) ([1]; standard conc 2.500 ng/ml): 1.183; A450 (absorbance at 450 nm) ([1]; standard conc 5.000 ng/ml): 1.027; A450 (absorbance at 450 nm) ([1]; standard conc 10.000 ng/ml): 0.888; A450 (absorbance at 450 nm) ([2]; standard conc 0.156 ng/ml): 1.721; A450 (absorbance at 450 nm) ([2]; standard conc 0.313 ng/ml): 1.755; A450 (absorbance at 450 nm) ([2]; standard conc 0.625 ng/ml): 1.756; A450 (absorbance at 450 nm) ([2]; standard conc 1.250 ng/ml): 1.759; A450 (absorbance at 450 nm) ([2]; standard conc 2.500 ng/ml): 1.782; A450 (absorbance at 450 nm) ([2]; standard conc 5.000 ng/ml): 1.814; A450 (absorbance at 450 nm) ([2]; standard conc 10.000 ng/ml): 1.857
2 | O=c1n(CCCN2CCN(c3cccc(Cl)c3)CC2)nc2ccccn12 [Trazodone, 2-(3-[4-(3-chlorophenyl)piperazin-1-yl]propyl)-[1,2,4]triazolo[4,3-α]pyridin-3(2H)-one] | 733 | – | 67 | 1.456 | 58 | 1.271 | 48 | 1.041 | 35 | 25 | 18 | 13 | 100 | 47 | 33 | 21 | 14 | 9 | 5 | 3 | A450 (absorbance at 450 nm) ([1]; standard conc 1.250 ng/ml): 0.763; A450 (absorbance at 450 nm) ([1]; standard conc 2.500 ng/ml): 0.551; A450 (absorbance at 450 nm) ([1]; standard conc 5.000 ng/ml): 0.398; A450 (absorbance at 450 nm) ([1]; standard conc 10.000 ng/ml): 0.287; A450 (absorbance at 450 nm) ([2]; standard conc 0.156 ng/ml): 0.816; A450 (absorbance at 450 nm) ([2]; standard conc 0.313 ng/ml): 0.570; A450 (absorbance at 450 nm) ([2]; standard conc 0.625 ng/ml): 0.375; A450 (absorbance at 450 nm) ([2]; standard conc 1.250 ng/ml): 0.237; A450 (absorbance at 450 nm) ([2]; standard conc 2.500 ng/ml): 0.151; A450 (absorbance at 450 nm) ([2]; standard conc 5.000 ng/ml): 0.093; A450 (absorbance at 450 nm) ([2]; standard conc 10.000 ng/ml): 0.057
3 | CCc1nn(CCCN2CCN(c3cccc(Cl)c3)CC2)c(=O)n1CCOc1ccccc1 [Nefazodone] | 100 | 3.901 (≈ 0.0083 µM) | 91 | – | 83 | – | 73 | – | 58 | 46 | 34 | 24 | 1.38 | 97 | 99 | 97 | 100 | 99 | 105 | 107 | A450 (absorbance at 450 nm) [2]: 1.621 and 1.677 and 1.663 and 1.765 and 1.799 and 1.631 and 1.656; mCPP as share of total metabolites (minor urinary metabolite of nefazodone) [3]: less than 1%
